Experimental data as given in US20220009914A1, “Analogs of Nitrofuran Antibiotics to Combat Resistance” (The Trustees of Indiana University, priority 2020, published 2022).
pEC50, pIC50: −log10 of the molar value. Like-named read-outs stand apart in the source and are kept apart here.

Experiments:
[1] = tested on: NEB 5-alpha Escherichia coli; experiment: bacterial proliferation assay, E. coli; assay type: cell-based; settings: for pEC50: read-out: Bacterial Proliferation EC50 E. coli
Method: (§1) All compounds were evaluated for inhibiting the proliferation of E. coli and each of the ESKAPE bacteria. Results presented represent the averages of EC50 values obtained from at least four replicates. Evaluating compounds for inhibition of bacterial cell proliferation.
(§2) Growth Media: E. coli were grown with LB medium and all ESKAPE bacteria were grown in Brain Heart Infusion (BHI) medium (Becton, Dickinson and Company), with all liquid cultures supplemented with 25 mg/L Ca^2+ and 12.5 mg/L Mg^2+ to mimic physiological free concentrations of these cations. A 10 mg/mL Ca^2+ stock solution was prepared by dissolving 1.84 g of CaCl2.2H2O in 50 mL of deionized water, and a 10 mg/mL Mg^2+ stock solution was prepared by dissolving 4.18 g of MgCl2.6H2O in 50 mL deionized water—filter sterilized using 0.2 μm cellulose-acetate filters. 2.5 mL of the sterile 10 mg/mL Ca^2+ stock and 1.25 mL of the sterile 10 mg/mL Mg^2+ stock solutions were added per 1 L of autoclaved LB or BHI media to obtain 25 mg/L Ca^2+ and 12.5 mg/L Mg^2+ ions, respectively.
(§3) General Assay Protocol: Stock bacterial cultures were streaked onto LB or BHI agar plates and grown overnight at 37° C. Fresh aliquots of cation supplemented media were inoculated with single bacterial colonies and the cultures were grown overnight at 37° C. with shaking (240 rpm). The following morning, cultures were diluted 10-fold into fresh media and grown at 37° C. until bacteria had reached mid-log phase growth (OD600˜0.4-0.6). The cultures were then diluted into fresh media to achieve final OD600 readings of 0.017. Aliquots of these diluted cultures (30 μL) were added to clear, flat-bottom 384-well polystyrene plates that were previously stamped with 0.5 μL of test compounds in 20 μL of media (yielding initial OD600=0.01 bacterial cultures). All compounds were tested in dose-response with concentration ranges during the proliferation assays from 100 μM to 46 nM (3-fold dilution series). A second set of baseline control plates were prepared analogously, but without any bacteria added, to correct for possible compound absorbance and/or precipitation. […] Plates were then read at 600 nm using a Molecular Devices SpectraMax Plus384 microplate reader. […] Results presented represent the averages of EC50 values obtained from at least four replicates.
(§4) Evaluating analogs for inhibiting the growth of E. coli and the ESKAPE bacteria. Analogs were initially tested for antibacterial efficacy against representative strains of antibiotic-sensitive E. coli and the ESKAPE bacteria. To determine compound efficacy, bacterial proliferation assays were carried out in liquid media culture supplemented with physiological concentrations of free calcium and magnesium cations. For these assays, bacterial cultures (OD600=0.01) were exposed to test compounds in 8-point, 3-fold dilution series (100 μM to 46 nM concentration range), in 384-well plates. After addition of compounds to cultures, the plates were sealed with Breathe-Easy gas permeable membranes and allowed to grow to mid-log phase (OD600˜0.4-0.6), whereupon final OD600 readings were taken to assess for bacterial growth and inhibition.

[2] = tested on: Pseudomonas aeruginosa strain NCTC 10332 (ATCC #10145); experiment: bacterial proliferation assay, P. aeruginosa; assay type: cell-based; settings: read-out: Bacterial Proliferation EC50 P. aeruginosa
Method: as §1, §2, §3, §4

[3] = tested on: Staphylococcus aureus strain Seattle 1945 (ATCC #25923); experiment: bacterial proliferation assay, S. aureus; assay type: cell-based
Method: as §1, §2, §3, §4

[4] = tested on: Acinetobacter baumannii strain 2208 (ATCC 19606); experiment: bacterial proliferation assay, A. baumannii; assay type: cell-based; settings: ATCC19606, read-out: Bacterial Proliferation EC50 A. baumannii
Method: as §1, §2, §3, §4

native MDH = target: T1, native MDH (Sus scrofa, UniProt P00346); experiment: native MDH activity counter-screen in the presence of E. coli NfsB nitroreductase; assay type: biochemical, pig
T1 sequence (P00346 25-338): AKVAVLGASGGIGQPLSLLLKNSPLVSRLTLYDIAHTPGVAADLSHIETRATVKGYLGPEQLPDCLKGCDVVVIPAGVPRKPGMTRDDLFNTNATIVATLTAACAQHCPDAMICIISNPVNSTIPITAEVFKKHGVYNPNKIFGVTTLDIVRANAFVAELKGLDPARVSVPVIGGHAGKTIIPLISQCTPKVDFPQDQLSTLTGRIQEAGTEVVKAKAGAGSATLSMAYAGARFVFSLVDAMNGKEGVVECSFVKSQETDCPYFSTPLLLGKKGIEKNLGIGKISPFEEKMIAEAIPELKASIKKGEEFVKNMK
Method: Evaluating compounds for inhibition in the GroEL/ES-mediated dMDH refolding assay and native MDH activity counter-screen in the presence of E. coli NfsB nitroreductase. These assays were performed nearly identically to those mentioned above, but with a couple distinct modifications. […] The remainder of the assay was conducted as in our standard protocol where no NfsB nitroreductase was present. […] Results presented represent the averages of IC50 values obtained from at least four replicates in each assay.

native rhodanese = target: T2, native rhodanese (Bos taurus, UniProt P00586); experiment: native rhodanese enzymatic activity counter-screen; assay type: biochemical
T2 sequence (P00586 1-297): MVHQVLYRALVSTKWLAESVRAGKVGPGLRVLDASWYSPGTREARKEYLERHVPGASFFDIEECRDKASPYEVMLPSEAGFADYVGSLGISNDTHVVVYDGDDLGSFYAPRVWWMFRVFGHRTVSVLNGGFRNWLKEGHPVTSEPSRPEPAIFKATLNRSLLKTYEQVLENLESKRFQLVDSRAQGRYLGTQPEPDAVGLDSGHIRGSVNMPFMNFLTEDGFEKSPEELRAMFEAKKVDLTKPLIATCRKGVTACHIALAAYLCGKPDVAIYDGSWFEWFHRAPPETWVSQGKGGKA
Method: Counter-screening compounds for inhibition of native rhodanese enzymatic activity. Reagent Preparations & Assay Protocol: Reagents were identical to those used in the GroEL/ES-dRho refolding assay described above; however, the assay protocol differed in the sequence of compound addition to the wells. Compounds were pin-transferred after 50 minute incubation for the refolding cycle, but prior to the addition of the thiocyanate enzymatic assay stock. Thus, the refolding reactions were allowed to proceed for 50 min at 37° C. in the absence of test compounds, but the enzymatic activity of the refolded rhodanese reporter enzyme was monitored in the presence of test compounds (inhibitor concentration range during the enzymatic reporter reaction is 100 μM to 46 nM—3-fold dilutions). IC50 values for the rhodanese reporter enzyme were determined as described above. Results presented represent the averages of IC50 values obtained from at least four replicates.
All compounds were counter-screened for inhibiting the enzymatic activity of the native Rho reporter enzyme as per our previously reported procedure. Results presented represent the averages of IC50 values obtained from at least four replicates.

[5] = Staphylococcus aureus, ATCC25923; read-out: Bacterial Proliferation EC50 S. aureus
[6] = with E. coli NfsB nitroreductase, read-out: Native MDH Activity w/NfsB IC50
[7] = compounds added after refolding, read-out: Native Rho Activity IC50

Structure (SMILES) | pEC50 ([1]; Escherichia coli) | pEC50 [2] | pEC50 [3, 5] | pEC50 [4] | pIC50 (native MDH; [6]) | pIC50 (native rhodanese; [7]) | inhibition of E. coli proliferation in words [1] | pIC50 (native MDH) | pIC50 (native rhodanese) | pEC50 [1] | pEC50 ([3]; Staphylococcus aureus, ATCC25923, read-out: Bacterial Proliferation EC50 S. aureus)
O=C(N/N=C/c1ccc(O)c2ccccc12)c1ccccc1 [Compound 30, N′-((4-hydroxynaphthalen-1-yl)methylene)benzohydrazide] | < 4.00 | < 4.00 | 4.06 | < 4.00 | < 4.25 | 4.01 |  |  |  |  | 
COc1ccc(C(=O)N/N=C/c2cccc3ncccc23)cc1 [Compound 31, 4-methoxy-N′-(quinolin-5-ylmethylene)benzohydrazide] | < 4.00 | < 4.00 | < 4.00 | < 4.00 | < 4.25 | < 4.00 |  |  |  |  | 
O=C(N/N=C/c1ccc([N+](=O)[O-])o1)c1ccc(O)cc1 [Nifuroxazide, reference compound] | 6.06 | < 4.00 | 4.80 | < 4.00 |  |  | potent inhibitors | < 4.25 | 4.16 |  | 
O=Cc1ccc(O)c2ncccc12 [Compound 40, reference compound] | 4.85 | < 4.00 | 4.72 | 4.96 | < 4.25 | 4.74 |  |  |  |  | 
O=C(N/N=C/c1ccc(O)c2ncccc12)c1cccc2ccccc12 [Compound 9, N′-((8-hydroxyquinolin-5-yl)methylene)-1-naphthohydrazide] | < 4.00 | < 4.00 | 4.25 | < 4.00 | < 4.25 | 4.01 |  |  |  |  | 
O=C(N/N=C/c1ccc([N+](=O)[O-])o1)c1ccc(NS(=O)(=O)c2cccs2)cc1 [Compound 26, N-(4-(2-((5-nitrofuran-2-yl)methylene)hydrazine-1-carbonyl)phenyl)thiophene-2-sulfonamide] | 4.77 | < 4.00 | 4.96 | < 4.00 | < 4.25 | 4.36 |  |  |  |  | 
CCOc1ccc(S(=O)(=O)Nc2ccc(C(=O)N/N=C/c3ccc(O)c4ncccc34)cc2)cc1 [Compound 15, 4-ethoxy-N-(4-(2-((8-hydroxyquinolin-5-yl)methylene)hydrazine-1-carbonyl)phenyl)benzenesulfonamide] | < 4.00 | < 4.00 | < 4.00 | < 4.00 | < 4.25 | < 4.00 |  |  |  |  | 
O=C(N/N=C/c1ccc(O)cc1)c1ccccc1 [Compound 36, N′-(4-hydroxybenzylidene)benzohydrazide] | < 4.00 | < 4.00 | < 4.00 | < 4.00 | < 4.25 | < 4.00 |  |  |  |  | 
COc1ccc(C(=O)N/N=C/c2ccco2)cc1 [Compound 39, N′-(furan-2-ylmethylene)-4-methoxybenzohydrazide] | < 4.00 | < 4.00 | < 4.00 | < 4.00 | < 4.25 | < 4.00 |  |  |  |  | 
O=C(N/N=C/c1cccc2ccccc12)c1ccccc1 [Compound 34, N′-(naphthalen-1-ylmethylene)benzohydrazide] | < 4.00 | < 4.00 | < 4.00 | < 4.00 | < 4.25 | < 4.00 |  |  |  |  | 
O=C(N/N=C/c1ccc(O)c2ncccc12)c1ccccc1 [Compound 5, N′-((8-hydroxyquinolin-5-yl)methylene)benzohydrazide] | 4.20 | < 4.00 | 4.16 | 4.25 | < 4.25 | 4.02 |  |  |  |  | 
O=C(N/N=C/c1ccc(O)c2ncccc12)c1ccc(NS(=O)(=O)c2ccc(Br)cc2)cc1 [Compound 14, 4-bromo-N-(4-(2-((8-hydroxyquinolin-5-yl)methylene)hydrazine-1-carbonyl)phenyl)benzenesulfonamide] | ≤ 4.00 | < 4.00 |  | 4.08 | < 4.25 | < 4.00 |  |  |  | < 4.00 | < 4.00
CCN(CC)S(=O)(=O)c1cccc(C(=O)N/N=C/c2ccc([N+](=O)[O-])o2)c1 [Compound 25, N,N-diethyl-3-(2-((5-nitrofuran-2-yl)methylene)hydrazine-1-carbonyl)benzenesulfonamide] | < 4.00 | < 4.00 | 5.02 | < 4.00 | < 4.25 | < 4.00 |  |  |  |  | 
O=C(N/N=C/c1ccccc1)c1ccccc1 [Compound 38, N′-benzylidenebenzohydrazide] | < 4.00 | < 4.00 | < 4.00 | < 4.00 | < 4.25 | < 4.00 |  |  |  |  | 
O=C(N/N=C/c1ccc(O)c2ncccc12)c1ccc(O)cc1 [Compound 7, 4-hydroxy-N′-((8-hydroxyquinolin-5-yl)methylene)benzohydrazide] | 4.34 | < 4.00 | 4.32 | 4.15 | < 4.25 | 4.14 |  |  |  |  | 
O=C(N/N=C/c1ccc([N+](=O)[O-])o1)c1ccc(NS(=O)(=O)c2ccc(Br)cc2)cc1 [Compound 27, 4-bromo-N-(4-(2-((5-nitrofuran-2-yl)methylene)hydrazine-1-carbonyl)phenyl)benzenesulfonamide] | < 4.00 | < 4.00 | < 4.00 | < 4.00 |  |  |  | < 4.25 | 4.36 |  | 
O=C(N/N=C/c1cccc2ncccc12)c1ccccc1 [Compound 32, N′-(quinolin-5-ylmethylene)benzohydrazide] | < 4.00 | < 4.00 | < 4.00 | < 4.00 | < 4.25 | < 4.00 |  |  |  |  | 
